Assay results taken from patent US20110034472A1, “Novel Compounds for Treatment of Cancer and Disorders Associated With Angiogenesis Function” (UNIVERSITY OF SOUTHERN CALIFORNIA, priority 2004, published 2011).

What was measured:
PC3 cells = assay: Cell cycle analysis (propidium iodide), SC21, PC3; type: cell-based, human; details: 72 hours
Method: FIG. 17 depicts flow cytometric analysis of the cell cycle profiles of DU145, PC3, MDA-MB-435, and HEY cells treated with SC21. […] SC21 induced a G0/G1 phase arrest in DU145 and MDA-MB-435 cells and S phase arrest in PC3 and HEY cells.
Cell cycle perturbations induced by SC21 and camptothecin (CPT) were analyzed by propidium iodide DNA staining. Briefly, exponentially growing PC3 and DU145 cells were treated with different doses of the drug for 24, 48, and 72 hours. At the end of each treatment time, cells were collected and washed with PBS after a gentle centrifugation at 200×g for 5 minutes. Cells were thoroughly resuspended in 0.5 mL of PBS and fixed in 70% ethanol for at least 2 hours at 4° C. Ethanol-suspended cells were then centrifuged at 200×g for 5 minutes and washed twice in PBS to remove residual ethanol. For cell cycle analysis, the pellets were suspended in 1 mL of PBS containing 0.02 mg/mL of propidiumiodide, 0.5 mg/mL of DNase-free RNase A and 0.1% of Triton X-100 and incubated at 37° C. for 30 minutes. Cell cycle profiles were obtained using a FACScan flowcytometer (Becton Dickinson, San Jose, Calif.) and data were analyzed by ModFit LT software (Verity Software House, Inc., Topsham, Me.).
It was noteworthy that SC21 induced S phase arrest in PC3 and HEY cell lines (FIG. 17).

T24 cells = assay: Two-dimensional gel electrophoresis proteomic analysis, SC23; type: cell-based, human; details: 2D gel spots, SC23 treatment
Method: Cells were treated for 12, 24, 48 and 72 hr with SC23 (IC80 dose). The soluble fraction was then extracted and quantified. […] of protein was loaded in the first dimension gel at 800 V for 16 h. Gels were then equilibrated, separated on a 12% SDS-PAGE gel for the second dimension, stained with CyproRuby, and imaged by Typhoon 9100.
SC23-Treated Cells Upregulate a Variety of Proteins in the Molecular Weight Range of 8-58 kDa. […] 2DE was then used to separate these proteins (FIG. 29). As above, treatment with SC23 led to a significant up-regulation of many proteins. Similar analysis was carried out for DU145 cells treated with SC23.
Proteins identified from the spots shown in FIG. 30 are 3-tubulin, myc promoter-binding protein (MPB-1), retinoblastoma-binding protein 7, vimentin, enolase, phosphopyruvate hydratase beta, mitochondrial ATP synthase beta chain.
Among the several spots that were at least 4-fold overexpressed was β-tubulin, which is related to the top three genes identified from our microarray analysis as described above.

[1] = tested on: HOP-92 non-small cell lung cancer cells; assay: Sensitivity of various cancer cells to SC144, HOP-92; type: cell-based; details: Homo sapiens
Source text: The studies were expanded to other cell lines. […] Subnanomolar to low nanomolar potency was also observed in HCT-116 and HT29 colon cancer cell lines (Table 2).

[2] = tested on: HCT 116 p53^+/+ colon cancer cells; assay: MTT cytotoxicity assay, HCT 116 p53+/+; type: cell-based, human; details: Homo sapiens, 72 h
Source text: Human breast cancer cells MDA-MB-435 and colon cancer HT29, p53 mutant were purchased from the American Type Cell Culture (Manassas, Va.). The HCT116 P53^+/+ and HCT116 P53^−/− cells were kindly provided by Dr. Bert Vogelstein (Johns Hopkins Medical Institutions, Baltimore, Md.). Human prostate cancer cells, LNCaP, were kindly provided by Richard Cote (University of Southern California Keck School of Medicine). Cells were maintained as monolayer cultures in RPMI 1640 media supplemented with 10% fetal bovine serum (Gemini-Bioproducts, Woodland, Calif.) and 2 mmol/L L-glutamine at 37° C. in a humidified atmosphere of 5% CO2. To remove the adherent cells from the flask for passaging and counting, cells were washed with PBS without calcium or magnesium, incubated with a small volume of 0.25% trypsin-EDTA solution (Sigma-Aldrich, St. Louis, Mo.) for 5-10 min, and washed with culture medium and centrifuged. All experiments were performed using cells at exponential growth stage. Cells were routinely checked for mycoplasma contamination using a PCR-based assay (Stratagene, Cambridge, UK).
Cytotoxicity was assessed by a 3-(4,5-dimethylthiazol-2-yl)-2,5-diphenyltetrazolium bromide (MTT) assay as previously described.^9 Briefly, cells were seeded in 96-well microtiter plates and allowed to attach. Cells were subsequently treated with continuous exposure to the corresponding drug for 72 h. An MTT solution (at a final concentration of 0.5 mg/mL) was added to each well, and cells were incubated for 4 h at 37° C. After removal of the medium, DMSO was added and the absorbance was read at 570 nm. All assays were done in triplicate. The IC50 was then determined for each drug from a plot of log (drug concentration) versus percentage of cells killed.

MDA-MB-435 xenograft = assay: microPET study of nude mouse with MDA-MB-435 xenograft treated with SC144; type: in vivo; details: 4 mg/kg daily i.p. 5 days; caliper measurements for 5 weeks
Method: Top row, baseline scans: (A) equilibrium-phase FDG, 30 min post injection; (B) FMAU, 10 min post injection; (C) FMAU, 60 min post injection. Bottom row, follow-up scans: (D) FDG, 30 min post injection; (E) FMAU, 10 min post injection; (F) FMAU, 60 min post injection. […] After five days of dosing, the drug treatment was discontinued and the follow-up scans were obtained on days 6 and 7.
[^18F]FDG is currently the most widely used radiotracer for imaging therapy response in oncology with PET. PET/[^18F]FDG measures viable cell density in tumors and also provides information on the expression of glucose transporters and hexokinase activity. […] Following cellular uptake, FMAU is phosphorylated by thymidine kinase and incorporated into DNA.
In later images at 30 and 60 min (FIG. 8C), FMAU had filled up the whole tumor, indicating the presence of dividing cells throughout.
FIGS. 8D-F show a repeat study of the same mouse after 5 days of treatment.

With `O=C(NNC(=O)c1ccccc1O)C1=CC2C=CC=CC2C=C1O` (centres unmarked) [SC21] the “accumulation in S phase” value (PC3 cells) was 52%.

In the case of `O=C(NNC(O)c1cc2ccccc2cc1O)c1cc2ccccc2cc1O` (centres unmarked) [SC23], the β-tubulin protein overexpression (T24 cells) is reported as “at least 4 fold”.

With `O=C(NNc1nc2cc(F)ccc2n2cccc12)c1cnccn1` [SC144, Pyrazine-2-carboxylic acid N′-(7-fluoro-pyrrolo[1,2-a]quinoxalin-4-yl)-hydrazide] the CC50 [1] was 200 nM, the IC50 [2] was 600 ± 70 nM and the “long-term reduction of tumor volume compared with sham-treated control mice” value (MDA-MB-435 xenograft) was over 50%.
